# Laboratory results from EP4782431A1 (Suzhou Merna Therapeutics Co. Ltd, priority 2023, dated 2025).
# Experiments:
# [1] = stability of crystal forms (XRPD, HPLC, color); type: physicochemical
# Description: A 2θ scanning angle of the sample was 3°-40°, a scanning step size was 0.02°, and a scanning time per step was 0.12 s/step. An optical tube voltage and a current were 40 kV and 40 mA, respectively. During sample preparation, an appropriate amount of the sample was placed on a sample tray and flattened with a tool such as a glass slide to ensure a smooth and even surface.
# An Agilent 1260 infinityII binary pump was used for solubility and stability testing.
# The stability of samples under these conditions was detected by XRPD and HPLC, and whether the samples had color changes was observed.
# A certain amount of the crystal form C of the compound of formula (I) was weighed and placed in an open container at 25°C/92.5%RH for 1 week. A certain amount of the crystal form C of the compound of formula (I) was weighed and placed in a closed container at 60°C for 1 week. The stability of samples under these conditions was detected by XRPD and HPLC, and whether the samples had color changes was observed. Table 16 Stability test results of the crystal form C of the compound of formula (I)
# A certain amount of the crystal form D of the compound of formula (I) was weighed and placed in an open container at 25°C/92.5%RH for 1 week. A certain amount of the crystal form D of the compound of formula (I) was weighed and placed in a closed container at 60°C for 1 week. The stability of samples under these conditions was detected by XRPD and HPLC, and whether the samples had color changes was observed. Table 17 Stability test results of the crystal form D of the compound of formula (I)
# A certain amount of the crystal form E of the compound of formula (I) was weighed and placed in an open container at 25°C/92.5%RH for 1 week. A certain amount of the crystal form E of the compound of formula (I) was weighed and placed in a closed container at 60°C for 1 week. The stability of samples under these conditions was detected by XRPD and HPLC, and whether the samples had color changes was observed. Table 18 Stability test results of the crystal form E of the compound of formula (I)
# [2] = hygroscopicity by dynamic vapor sorption (DVS); type: physicochemical; conditions: for 1st adsorption Percentage of weight change / 1st desorption Percentage of weight change / 2nd adsorption Percentage of weight change / 2nd desorption Percentage of weight change: 40-0-95-0-40%RH, 240 min per step
# Description: ProUmid SPSx-1µ Advance was used for analysis of a sample. The sample to be tested was approximately in an amount of 5-50 mg. A temperature in a test chamber was controlled at 25±1°C, a relative humidity cycle was […], a step size was 10%, an equilibrium time was 240 minutes per step, and mass data was recorded every 20 seconds.
# A DVS cycle was 40-0-95-0-40%RH. XRPD detection was performed on samples after the DVS testing to determine whether crystal form transformation occurred.
structure (smiles),measurement,setting,value
"NC(=O)[C@H]1CCCc2c1[nH]c1ccc(Cl)cc21 [Crystal form A, (S)-6-chloro-2,3,4,9-tetrahydro-1H-carbazole-carboxamide]",Color,"[1]; 25°C/92.5%RH, open, 1 week",No change
same,Degradation (%),"[1]; 25°C/92.5%RH, open, 1 week",None
same,Purity (%),"[1]; 25°C/92.5%RH, open, 1 week",99.8%
same,Color,"[1]; 60°C, closed, 1 week",No change
same,Degradation (%),"[1]; 60°C, closed, 1 week",None
same,Purity (%),"[1]; 60°C, closed, 1 week",99.8%
same,Purity (%),[1]; Initial,99.8%
same,Hygroscopicity Conclusion,"[2]; DVS at 25°C, Table 15",Slight hygroscopicity
same,1st adsorption Percentage of weight change,[2]; Relative humidity 0% at 25°C,0.3%
same,1st desorption Percentage of weight change,[2]; Relative humidity 0% at 25°C,0.3%
same,2nd adsorption Percentage of weight change,[2]; Relative humidity 0% at 25°C,0.2%
same,2nd desorption Percentage of weight change,[2]; Relative humidity 0% at 25°C,0.2%
same,1st adsorption Percentage of weight change,[2]; Relative humidity 10% at 25°C,0.1%
same,1st desorption Percentage of weight change,[2]; Relative humidity 10% at 25°C,0.3%
same,2nd adsorption Percentage of weight change,[2]; Relative humidity 10% at 25°C,0.3%
same,2nd desorption Percentage of weight change,[2]; Relative humidity 10% at 25°C,0.3%
same,1st adsorption Percentage of weight change,[2]; Relative humidity 20% at 25°C,0.3%
same,1st desorption Percentage of weight change,[2]; Relative humidity 20% at 25°C,0.1%
same,2nd adsorption Percentage of weight change,[2]; Relative humidity 20% at 25°C,0.3%
same,2nd desorption Percentage of weight change,[2]; Relative humidity 20% at 25°C,0.2%
same,1st adsorption Percentage of weight change,[2]; Relative humidity 30% at 25°C,0.3%
same,1st desorption Percentage of weight change,[2]; Relative humidity 30% at 25°C,0.1%
same,2nd adsorption Percentage of weight change,[2]; Relative humidity 30% at 25°C,0.1%
same,2nd desorption Percentage of weight change,[2]; Relative humidity 30% at 25°C,0.3%
same,1st adsorption Percentage of weight change,[2]; Relative humidity 40% at 25°C,0.1%
same,1st desorption Percentage of weight change,[2]; Relative humidity 40% at 25°C,0.3%
same,2nd adsorption Percentage of weight change,[2]; Relative humidity 40% at 25°C,0.3%
same,2nd desorption Percentage of weight change,[2]; Relative humidity 40% at 25°C,0.4%
same,1st adsorption Percentage of weight change,[2]; Relative humidity 50% at 25°C,0.0%
same,2nd desorption Percentage of weight change,[2]; Relative humidity 50% at 25°C,0.1%
same,1st adsorption Percentage of weight change,[2]; Relative humidity 60% at 25°C,0.4%
same,2nd desorption Percentage of weight change,[2]; Relative humidity 60% at 25°C,0.4%
same,1st adsorption Percentage of weight change,[2]; Relative humidity 70% at 25°C,0.4%
same,2nd desorption Percentage of weight change,[2]; Relative humidity 70% at 25°C,0.4%
same,1st adsorption Percentage of weight change,[2]; Relative humidity 80% at 25°C,0.5%
same,2nd desorption Percentage of weight change,[2]; Relative humidity 80% at 25°C,0.2%
same,1st adsorption Percentage of weight change,[2]; Relative humidity 90% at 25°C,0.5%
same,2nd desorption Percentage of weight change,[2]; Relative humidity 90% at 25°C,0.6%
same,1st adsorption Percentage of weight change,[2]; Relative humidity 95% at 25°C,0.7%
same,2nd desorption Percentage of weight change,[2]; Relative humidity 95% at 25°C,0.7%
same,XRPD after DVS testing,[2]; after DVS cycle 40-0-95-0-40%RH at 25°C,Crystal form A
same,water absorption,"[2]; from 40% to 95%RH, 25°C",0.6%
